“And” between values parts separate entries of the source, which are not always exact repeats. Equal values may be shown once.
Tests used:
MpPA14 [1] = molecular target: T1, MpPA14 (Marinomonas primoryensis, UniProt A1YIY3); experiment: Dextran-based comparative competition assay (MpPA14); type: binding
Excerpt: To gain insight into the binding specificity of MpPA14, we investigated the relative affinity of various monosaccharides for the lectin by a comparative competition assay ([12]). MpPA14 bound to Superdex resin was competitively released into solution by the progressive addition of free sugars. The released protein concentrations measured by absorbance at 280 nm were plotted as a function of free sugar concentration to produce semiquantitative binding curves (Fig. 1A and B). The apparent dissociation constant (Kdapp) calculated from these binding curves was used as a relative measure of affinity for each assayed sugar (Table 1). […] D-Ribose bound […] more strongly than its derivative 2-deoxy-D-ribose (Kdapp of 6.8 mM as opposed to 18 mM; Fig. 1B and Table 1).
(§1) The dextran resin competition assay was performed as previously described for MhPA14 ([12]). Briefly, Superdex 200 (S200) resin was washed twice with 50 mM Tris-HCl (pH 9), 150 mM NaCl, and 5 mM CaCl2. One ml of 1 mg/ml MpPA14 with green fluorescent protein (GFP) fused to its N terminus (GFP-MpPA14) or VcPA14 labeled with FITC was suspended with 300 μl of equilibrated Superdex 200 (S200) resin. Following an incubation period with gentle mixing, the S200 resin bound with GFP-MpPA14 was pelleted by centrifugation. The pellet was washed twice with 50 mM Tris-HCl (pH 9), 150 mM NaCl, and 5 mM CaCl2, and the A280 of the supernatant from the second wash was used as the baseline reading. Next, after resuspension in the same buffer, aliquots of 1.67 μmol saccharide were sequentially added to the solution six or seven times, with the A280 of the supernatant being measured after each addition to quantify the release of lectin. The final addition of saccharide was […]. Data from the dextran affinity assay were plotted using GraphPad Prism after subtracting the background. Next, the data were fitted to a nonlinear regression of one-site-specific binding, which follows the model y/Bmax = x/(Kd + x), with Bmax as the maximum specific binding and Kd as the equilibrium binding constant.

VcPA14 = experiment: Dextran-based comparative competition assay (VcPA14); type: binding, Vibrio cholerae; conditions: FITC-VcPA14 on Superdex 200 resin
Method: (§2) As proof of concept for the antiadhesion strategy that targets microbial pathogens, we studied the VcPA14 lectin domain from a large 6,938-amino-acid RTX adhesin (GenBank accession number WP_154597608) of the cholera-causing bacterium, V. cholerae. As discussed, VcPA14 has a similar ligand-binding site as that of MpPA14 (Fig. S1), with key sugar-binding residues conserved (Fig. S1G).
as §1, with “Data from the dextran affinity assay were plotted using GraphPad Prism after subtracting the background. Next, the data were fitted to a nonlinear regression of one-site-specific binding, which follows the model y/Bmax = x/(Kd + x), with Bmax as the maximum specific binding and Kd as the equilibrium binding constant.” left out

[2] = test system: FITC-labeled MpPA14 binding to the diatom Chaetoceros neogracile; experiment: Diatom binding experiment with FITC-MpPA14; type: cell-based
Excerpt: C. neogracile is a psychrophilic marine diatom found in Antarctic waters ([50]). […] Each diatom cell has 1 to 4 projections protruding from the corners. Given its photosynthetic capability, C. neogracile contains chlorophyll that is intrinsically fluorescent. […] We reason that glycans coating the diatom cell membrane present numerous end group binding sites in close proximity that can serve as a “molecular Velcro” for MpPA14 binding ([30]).
The Antarctic diatom, Chaetoceros neogracile, was cultured as previously described ([21], [50]). FITC-labeled MpPA14 or VcPA14 (FITC-MpPA14 or FITC-VcPA14, 0.2 mg/ml) in the presence or absence of sugars was incubated with diatoms in buffer (50 mM Tris-HCl [pH 9], 300 mM NaCl, and 5 mM CaCl2) with gentle mixing for 2 h. Next, diatoms were pelleted by centrifugation for 3 min at 7,000 rpm, and the resulting supernatant was discarded. This procedure was repeated three times to wash away unbound FITC-MpPA14 before the diatom pellet was finally resuspended in 20 μl buffer, which was then used to make slides for fluorescence microscopy. In a separate experiment to test if fucose could compete off the MpPA14 that was already bound to diatoms, FITC-MpPA14 was incubated with diatom for 1.5 h before fucose was added. The rest of the experiment followed the same procedure as described above.
(§3) Images were obtained using an Olympus IX83 inverted fluorescence microscope equipped with an Andor Zyla 4.2 Plus camera. Quantification of the fluorescence intensity was done using Fiji ImageJ. The corrected total cell fluorescence (CTCF) was calculated using the following formula: CTCF = integrated density − (area of selected cell × mean fluorescence of the background) ([60]). Quantification of 30 individual diatom cells was done for each treatment. Graphs were made using GraphPad Prism.

MpPA14 [3] = molecular target: T1, MpPA14; experiment: Isothermal titration calorimetry; type: binding; conditions: 30°C; for ΔH (enthalpy) / ΔS (entropy) / binding stoichiometry (N value): ITC; for binding stoichiometry (N value): one-binding-site model; for Kd: Kd (dissociation constant, ITC), free sugar in solution
Excerpt: The ITC measurements produced rectangular hyperbolic curves for all three simple saccharides, and fitted well to a one-binding-site model with calculated binding stoichiometry (N) values being close to 1 ([12], [21]). […] However, this is to be expected, because the dextran beads used in the competition assay have multiple binding sites nearby that attract the lectin, whereas the calorimetry was done with free sugars in solution. […] In general, the affinity of lectins for monosaccharides (Kd values) lies within the high micromolar to millimolar range ([8], [30], [31]). […] Furthermore, negative enthalpy (ΔH) and entropy (ΔS) contributions were calculated for all three carbohydrates when they bound to MpPA14, which indicated the binding was driven primarily by polar interaction such as the formation of hydrogen and ionic bonds rather than by hydrophobic interactions. This was consistent with the observation that the Ca^2+-dependent ligand-binding site of MpPA14 consisted of mainly polar and charged amino acids without any residues with large hydrophobic side chains. We therefore acquired detailed structural information to study MpPA14 ligand recognition.
Isothermal titration calorimetry (ITC) measurements were performed at 30°C with a MicroCal VP-ITC instrument (Malvern). […] Sugars were automatically added by a rotating syringe (400 rpm) at 5-min intervals into the MpPA14 solution for a total of 50 injections. The data were analyzed with Origin software version 5.0 (MicroCal).

[4] = test system: FITC-labeled VcPA14 binding to C. neogracile; experiment: Diatom binding experiment with FITC-VcPA14; type: cell-based, Chaetoceros neogracile; conditions: 0.5 mM sugar
Method: as §2
The Antarctic diatom, Chaetoceros neogracile, was cultured as previously described ([21], [50]). FITC-labeled MpPA14 or VcPA14 (FITC-MpPA14 or FITC-VcPA14, 0.2 mg/ml) in the presence or absence of sugars was incubated with diatoms in buffer (50 mM Tris-HCl [pH 9], 300 mM NaCl, and 5 mM CaCl2) with gentle mixing for 2 h. […] This procedure was repeated three times to wash away unbound FITC-MpPA14 before the diatom pellet was finally resuspended in 20 μl buffer, which was then used to make slides for fluorescence microscopy. […]
as §3, with “Graphs were made using GraphPad Prism.” left out

T1 sequence (A1YIY3 entry or part of it): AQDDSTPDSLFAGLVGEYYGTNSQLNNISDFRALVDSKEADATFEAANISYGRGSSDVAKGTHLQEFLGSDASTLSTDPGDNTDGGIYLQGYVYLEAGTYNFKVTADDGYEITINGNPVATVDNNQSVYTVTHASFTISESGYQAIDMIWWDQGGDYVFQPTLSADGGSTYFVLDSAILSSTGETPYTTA

Row | Compound | Kdapp (apparent dissociation constant) (MpPA14 [1]; GFP-MpPA14 bound to Superdex 200 resin released by free sugar, A280, pH 9, 5 mM CaCl2, – = no detectable binding (footnote a)) | Kd (MpPA14 [1]; GFP-MpPA14 bound to Superdex 200 resin released by free sugar, A280, pH 9, 5 mM CaCl2, – = no detectable binding (footnote a), read-out: Kdapp (apparent dissociation constant)) | relative binding to VcPA14 (in words) (VcPA14) | prevention of lectin binding to the diatom (in words) ([2]; 50 mM sugar, 0.2 mg/ml FITC-MpPA14) | Kd (MpPA14 [1]) | ΔH (enthalpy) (MpPA14 [3]) | ΔS (entropy) (MpPA14 [3]) | binding stoichiometry (N value) (MpPA14 [3]) | Kd (MpPA14 [3]) | blocking of FITC-VcPA14 binding to C. neogracile (in words) [4] | fluorescent signal displaced (competitive effect) ([2]; 0.1 mM sugar, 0.2 mg/ml FITC-MpPA14) | effect on diatoms precoated with FITC-labeled MpPA14 (in words) ([2]; 0.5 mM sugar added after 1.5 h incubation of lectin with diatoms) | fluorescent signal displaced ([2]; 0.5 mM sugar, 0.2 mg/ml FITC-MpPA14)
1 | CC(=O)N[C@@H]1[C@@H](O)[C@@H](O)[C@@H](CO)O[C@@H]1O [N-acetyl-galactosamine] | no measurable interaction | > 18000 µM | cannot bind | unable to prevent the lectin from binding the diatom |  |  |  |  |  |  |  |  | 
2 | CC(=O)N[C@@H]1[C@@H](O)[C@H](O)[C@@H](CO)O[C@H]1O [N-acetyl-glucosamine, N-acetylglucosamine] |  |  | more strongly than glucose |  | 1070 µM | -15,810 ± 226.1 cal/mol | -34.9 cal/ mol/K | 1 ± 0.0116 | 170 µM and ~150 µM |  |  |  | 
3 | C[C@H](O)[C@@H](O)[C@@H](O)[C@H](O)C=O [L-Fucose, L-fucose] |  |  |  |  | 650 µM | -11,800 ± 191.8 cal/mol | -21.4 cal/ mol/K | 1.01 ± 0.0131 | 147 µM and ~150 µM | largely blocked | ~40% | resulted in the dissociation of the lectin from the cells | 95%
4 | OC[C@H]1OC(O)[C@H](O)[C@@H](O)[C@@H]1O (stereo partly drawn) [Glucose] |  |  |  |  | 1360 µM and 1400 µM | -10,880 ± 42.71 cal/mol | -20.1 cal/ mol/K | 0.952 ± 0.0216 | 350 µM |  |  |  | 

From article PMC8092209, “Structural Basis of Ligand Selectivity by a Bacterial Adhesin Lectin Involved in Multispecies Biofilm Formation” (mBio, 2021)
